Where “and” joins values, the source holds several entries; their conditions need not be identical. Equal entries are not always repeated. Where two headings read alike, the source gives them in different places.
Columns and labels:
hASIC1a [1] = biological target: T1, hASIC1a (Homo sapiens, UniProt P78348); assay: Patchliner APC, CHO ASIC1a currents, stacked tip application, voltage clamp; assay type: cell-based; set-up: host or cells: CHO; settings: cumulative application, pH 6.5, stacked tip, single hole
T1 sequence (P78348 1-528): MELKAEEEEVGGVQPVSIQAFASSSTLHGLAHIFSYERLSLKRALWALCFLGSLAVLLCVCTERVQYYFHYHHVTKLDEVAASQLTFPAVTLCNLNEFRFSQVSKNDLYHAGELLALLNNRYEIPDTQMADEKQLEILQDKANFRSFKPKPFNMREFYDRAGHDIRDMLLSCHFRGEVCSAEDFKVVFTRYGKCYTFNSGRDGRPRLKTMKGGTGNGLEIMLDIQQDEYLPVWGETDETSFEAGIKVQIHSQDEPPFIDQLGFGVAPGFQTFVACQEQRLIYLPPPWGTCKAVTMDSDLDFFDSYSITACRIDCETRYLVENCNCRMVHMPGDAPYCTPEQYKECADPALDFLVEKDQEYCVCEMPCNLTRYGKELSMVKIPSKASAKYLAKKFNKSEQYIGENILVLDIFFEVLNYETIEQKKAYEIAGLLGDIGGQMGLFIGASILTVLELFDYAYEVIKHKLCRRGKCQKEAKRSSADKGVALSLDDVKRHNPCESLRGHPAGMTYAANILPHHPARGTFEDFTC
Procedure: CHO cells were cultured according to vendor instructions (B-SYS GmbH) and harvested using optimized protocols before transfer of the cell suspension to the automated cell hotel on the Patchliner where cells are stored at RT (∼20°C) in a small Teflon vessel and repetitively aspirated every 30 s using a 1 ml plastic pipette tip to prevent aggregation. The cell hotel parameters can be adjusted (interval, speed and volume of aspiration) depending on the cell type to maintain viability for 2–3 h. Cell sealing was conducted in the presence of elevated divalent cations and lowered Na^+, which were washed off after whole-cell access was achieved and replaced with external solution while cells were voltage clamped at a holding potential of −60 mV. […]
Concentration-response xC50 curves from Patchliner and QPatch 48 experiments were calculated by plotting %inhibition (antagonists) or activation (pH) data against concentration in Prism software (GraphPad), using the variable sigmoidal dose-response function to fit the Hill equation with theoretical minimum block of 0% and maximum block of 100% and a free constant for Hill slope. […]

hASIC1a [2] = biological target: T1, hASIC1a; set-up: host or cells: CHO; settings: ref Leng et al., 2016; read-out: Literature IC50; cited from earlier work
[3] = system: endogenous pH-gated responses in HEK cells; set-up: method as in Gunthorpe et al. (2001); settings: manual patch clamp, ref Gunthorpe et al. (2001), read-out: affinity for inhibition of endogenous pH-gated responses; cited from earlier work
ENaC channels = system: ENaC channels; set-up: method as in Canessa et al., 1994; settings: ref Canessa et al., 1994; cited from earlier work
[4] = system: endogenous proton-activated currents in HEK cells; assay: cells; assay type: cell-based, human; settings: for IC50: pH 6.5 activation, QPatch 48, read-out: mean IC50
Procedure: CHO hASIC1a cells were cultured according to vendor instructions (B-SYS GmbH) and HEK cells using standard in-house methods. Both cell lines were harvested using optimized protocols and re-suspended in serum-free media (Gibco CHO-S-SFM from Thermo Fisher Scientific for CHO cells, and Ex-Cell 302 from Merck Sigma-Aldrich for HEK cells) to obtain a suspension of cells with smooth membranes and little debris, before transfer to the automated cell hotel consisting of a 60 ml plastic container (Sophion SB2050) and a magnetic stir bar to prevent cell clumping. An aliquot of cells is then aspirated into a 1 ml microcentrifuge tube and spun down (typically 150 g for 2.5 min) and the supernatant discarded before a user-defined volume of external solution is added by the robot and the cells re-suspended to achieve the desired final cell suspension density before application to primed QPlates. Cell capture, sealing and whole-cell access was achieved using optimized QPatch protocols before currents were recorded using a holding potential of −60 mV. […] Cells were washed three times with external pH 7.3 solution (5 μl) between applications of activating acidic solution to establish a stable ASIC1a current baseline. […] Each concentration of reference compound was applied to each cell before (i.e., during each pH 7.3 application period) and during each pH stimulus (IC50 mode). Thus, each concentration of test compound was pre-incubated with cells for at least 2 min before, and then during each acidic solution challenge, before wash-off in a neutral pH 7.3 solution that contained the next concentration of the same compound. Cells were allowed at least 2 min between applications of acidic solution to enable ASIC1a receptors to recover from desensitization.
Concentration-response xC50 curves from Patchliner and QPatch 48 experiments were calculated by plotting %inhibition (antagonists) or activation (pH) data against concentration in Prism software (GraphPad), using the variable sigmoidal dose-response function to fit the Hill equation with theoretical minimum block of 0% and maximum block of 100% and a free constant for Hill slope. Inward current amplitudes were compared to the response to a control pH application (typically pH 6.5) prior to antagonist application or excitation by solutions of different pH to enable calculation of %inhibition or %activation for each cell.
To quickly confirm a previous publication that HEK cells express endogenous ASIC1a receptor channels and assess the suitability of this cell system for drug discovery screening on APC platforms, we utilized the medium throughput QPatch 48 device. The QPatch uses 48 well microfluidic planar borosilicate chips and coated titanium pipette tips to make whole-cell recordings and sequentially apply small liquid volumes to enable rapid activation followed by slower deactivation (wash-off) of ligand-gated ionotropic responses. HEK cells were voltage-clamped at −60 mV and maintained in external solution at pH 7.4 to avoid steady-state desensitization of ASIC1 receptor channels. Cells were stimulated by external solutions with pH values ranging between 7.0 and 5.5 that evoked rapidly activating inward currents, followed by wash-off in pH 7.4 solution.

SMILES | IC50 (hASIC1a [1]) [µM] | IC50 (hASIC1a [2]) [µM] | IC50 [3] [µM] | sensitivity of ENaC channels to inhibition (ENaC channels) [nM] | IC50 ([4]; HEK cells) | IC50 ([4]; Homo sapiens, HEK293, pH 6.5, HEK cells) [µM] | inhibition at 0.3 µM ([4]; Homo sapiens, HEK293, read-out: inhibition of pH-evoked current (some cells)) [%]
NC(=NCc1ccccc1)NC(=O)c1nc(Cl)c(N)nc1N [Benzamil] | 3.65 | 3.5 | – | – | – | – | –
N=C(N)NC(=O)c1nc(Cl)c(N)nc1N [Amiloride] | – | – | 2.2 | 100 | 2 to 3 µM and 2.8 µM | 2.82 | ~25

Source: article PMC9629855, “Development of ASIC1a ligand-gated ion channel drug screening assays across multiple automated patch clamp platforms” (Frontiers in Molecular Neuroscience, 2022)
